According to paper PMC5062169, “Structural basis for ligand recognition by a Cache chemosensory domain that mediates carboxylate sensing in Pseudomonas syringae” (Scientific Reports, 2016):
Like-named read-outs stand apart in the source and are kept apart here.

Molecular target: T1, PscD (PscD-SD, Cache sensor domain of chemoreceptor PscD) (Pseudomonas syringae, UniProt A0ABY1U976)
T1 construct: gene CFBP3846_03581; sensor domain, Gln31-Trp188, N-terminal His6 tag
T1 sequence (A0ABY1U976 31-188): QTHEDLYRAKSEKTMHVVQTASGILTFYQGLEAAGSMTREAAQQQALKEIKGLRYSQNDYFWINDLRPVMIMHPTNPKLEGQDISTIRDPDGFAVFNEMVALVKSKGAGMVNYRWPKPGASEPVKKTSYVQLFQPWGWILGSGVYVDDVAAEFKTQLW
Set-up: fluorescence thermal shift (SYPRO Orange) screen of Biolog PM1/PM2 compounds, delta Tm
Conditions: Biolog plate compound, exact concentration unknown, binder
Source text: We used high-throughput fluorescence thermal shift (FTS) assays (as described previously[16]) to screen for potential ligands of PscD-SD. FTS assays are based on the principle that ligands stabilise proteins upon binding, causing an increase in the melting temperature of the protein[22][23]. Binding can therefore be rapidly screened by measuring the difference in the temperature midpoint of unfolding (ΔTm) of a protein in the presence and absence of potential ligands. In our FTS assays, the Tm was measured by monitoring an increase in fluorescence of a dye with affinity for hydrophobic parts of the protein (i.e. SYPRO Orange), which are exposed as the protein unfolds. We screened the recombinant PscD-SD protein in FTS assays against the compounds in Biolog Phenotype Microarray (PM) plates 1 and 2 (Supplementary Tables 1 and 2). Each plate contains 95 different compounds (e.g., organic acids, sugars) and a water (no ligand) control. For use in FTS assays, the compounds were resuspended directly in water, thus generating a library of biologically relevant potential ligands. […] Fluorescent thermal shift (FTS) assays were conducted as reported previously. PscD-SD was screened for potential ligands against Biolog Phenotype Microarray (PM) plates 1 and 2 (Biolog, Hayward, CA, USA). For initial qualitative, high-throughput screening, ligands were prepared by dissolving Biolog PM compounds in 50 μL of water (each) to obtain a final concentration of approximately 10–20 mM (the exact concentrations vary from well-to-well). Screens were set up in Lightcycler 480 multiwell plates (Roche Diagnostics, Auckland, NZ) with 20 μM protein, a 5x concentration of SYPRO orange (Life Technologies, Carlsbad, CA, USA) and 5 μL of the test compound (i.e. resuspended Biolog ligands) added to each well. The plate was covered with Lightcycler 480 sealing film (Roche Diagnostics) and fluorescence signal was monitored as the temperature was increased from 20 °C to 80 °C at a rate of 1.2 °C.min^−1 in a Lightcycler 480 (Roche Diagnostics). Initial hits were further tested using known concentrations (0, 1, 2, 5 and 10 mM) of each potential ligand to confirm binding. The ligands were prepared as 10x stocks, 2 μL were added to each well, and the experiments were conducted as described above. The first derivative values (−dF/dt) from the raw fluorescence data were used to determine the melting temperature (Tm). Three biological replicates (from independently cultured and purified batches of protein) were performed for each plate screened.

| Structure (SMILES) | Δ Tm [°C] | Δ Tm (Δ Tm) [°C] |
| --- | --- | --- |
| CC(O)(CC(=O)O)C(=O)O (stereo not shown) [Citramalic Acid] | 0.03 ± 0.03 | – |
| O=C(CO)CO [Dihydroxyacetone] | 0.35 ± 0.14 | – |
| O=C(O)CCCCCCCCC(=O)O [Sebacic Acid] | 0.48 ± 0.09 | – |
| NCCCCN [Putrescine] | 0.03 ± 0.05 | – |
| O=C(O)[C@]1(O)C[C@@H](O)[C@@H](O)[C@H](O)C1 [Quinic Acid] | 0.00 ± 0.04 | – |
| N#C[C@H](O[C@@H]1O[C@H](CO[C@@H]2O[C@H](CO)[C@@H](O)[C@H](O)[C@H]2O)[C@@H](O)[C@H](O)[C@H]1O)c1ccccc1 [Amygdalin] | 0.03 ± 0.03 | – |
| C[C@H](N)C(N)=O [L-Alaninamide] | 0.08 ± 0.00 | – |
| N[C@@H](Cc1ccccc1)C(=O)O [L-Phenylalanine] | 0.08 ± 0.00 | – |
| CC(N)=O [Acetamide] | 0.00 ± 0.00 | – |
| O=C(O)[C@@H]1C[C@@H](O)CN1 [Hydroxy-L-Proline] | 0.03 ± 0.05 | – |
| OC[C@H]1O[C@@H]2O[C@H]3[C@H](O)[C@@H](O)[C@@H](O[C@H]4[C@H](O)[C@@H](O)[C@@H](O[C@H]5[C@H](O)[C@@H](O)[C@@H](O[C@H]6[C@H](O)[C@@H](O)[C@@H](O[C@H]7[C@H](O)[C@@H](O)[C@@H](O[C@H]8[C@H](O)[C@@H](O)[C@@H](O[C@H]1[C@H](O)[C@H]2O)O[C@@H]8CO)O[C@@H]7CO)O[C@@H]6CO)O[C@@H]5CO)O[C@@H]4CO)O[C@@H]3CO [β-Cyclodextrin] | 0.45 ± 0.0 | – |
| C/C(=C/C(=O)O)C(=O)O [Citraconic Acid] | 0.08 ± 0.00 | – |
| O=C(CO)[C@@H](O)[C@@H](O)[C@H](O)CO [D-Tagatose] | 0.00 ± 0.04 | – |
| O=C(O)C(=O)O [Oxalic Acid] | 0.03 ± 0.03 | – |
| O=C(O)[C@H](O)[C@@H](O)[C@H](O)[C@H](O)CO[C@H]1O[C@H](CO)[C@H](O)[C@H](O)[C@H]1O [Melibionic Acid] | 0.08 ± 0.00 | – |
| N[C@@H](CCO)C(=O)O [L-Homoserine] | 0.03 ± 0.03 | – |
| OC1OC[C@@H](O)[C@@H](O)[C@@H]1O (stereo partly drawn) [D-Arabinose] | 0.05 ± 0.05 | – |
| N=C(N)NCCC[C@H](N)C(=O)O [L-Arginine] | 0.03 ± 0.03 | – |
| NC(=O)CCC(=O)O [Succinamic Acid] | 0.18 ± 0.10 | – |
| O=C(O)[C@H](O)[C@@H](O)C(=O)O [L-Tartaric Acid] | – | 0.33 ± 0.29 |
| CO[C@H]1O[C@H](CO)[C@@H](O)[C@H](O)[C@@H]1O [α-Methyl-D-Mannoside] | 0.05 ± 0.03 | – |

| Structure (SMILES) | Δ Tm [°C] | Δ Tm (Δ Tm) [°C] |
| --- | --- | --- |
| OC[C@@H](O)[C@@H](O[C@H]1O[C@H](CO)[C@@H](O)[C@H](O)[C@H]1O)[C@H](O)[C@@H](O)CO [Maltitol] | 0.05 ± 0.05 | – |
| CC(=O)N[C@@H](CCC(=O)O)C(=O)O [N-Acetyl-L-Glutamic Acid] | 0.08 ± 0.00 | – |
| COC(=O)[C@@H](C)O [D-Lactic Acid Methyl Ester] | 0.00 ± 0.00 | – |
| O=C(CO)[C@@H](O[C@H]1O[C@H](CO)[C@@H](O)[C@H](O)[C@H]1O)[C@H](O)[C@H](O)CO [Turanose] | 0.03 ± 0.03 | – |
| NCCCC(=O)O [γ-amino butyric acid] | 0.05 ± 0.03 | – |
| O=C(O)c1ccc(O)cc1 [4-Hydroxy Benzoic Acid] | 0.03 ± 0.03 | – |
| OC[C@@H](O)[C@@H](O[C@@H]1O[C@H](CO)[C@H](O)[C@H](O)[C@H]1O)[C@H](O)[C@@H](O)CO [Lactitol] | 0.08 ± 0.00 | – |
| C[C@@H](O)[C@H](O)[C@H](O)[C@@H](O)C=O [D-Fucose] | 0.10 ± 0.11 | – |
| OC[C@H]1O[C@@](CO)(O[C@H]2O[C@H](CO)[C@@H](O)[C@H](O)[C@H]2O)[C@@H](O[C@H]2O[C@H](CO)[C@@H](O)[C@H](O)[C@H]2O)[C@@H]1O [D-Melezitose] | 0.03 ± 0.03 | – |
| CO[C@@H]1OC[C@@H](O)[C@H](O)[C@H]1O [β-Methyl-D-Xyloside] | 0.10 ± 0.11 | – |
| O=C(O)CC(=O)O [Malonic Acid] | 0.08 ± 0.00 | – |
| OC[C@H]1O[C@@H](O)[C@H](O)[C@H](O)[C@@H]1O [β-D-Allose] | 0.08 ± 0.00 | – |
| NCCCC[C@H](N)C(=O)O [L-Lysine] | 0.10 ± 0.11 | – |
| CC(O)CC(=O)O (stereo not drawn) [β-Hydroxy Butyric Acid] | 0.03 ± 0.05 | – |
| OCc1ccccc1O[C@@H]1O[C@H](CO)[C@@H](O)[C@H](O)[C@H]1O [Salicin] | 0.08 ± 0.00 | – |
| OC[C@H](O)C(O)[C@@H](O)CO [L-Arabitol] | 0.03 ± 0.03 | – |
| N[C@@H](Cc1c[nH]cn1)C(=O)O [L-Histidine] | 0.00 ± 0.04 | – |
| O=C(O)c1ccccc1O [2-Hydroxy Benzoic Acid] | 0.00 ± 0.04 | – |
| CSCC[C@H](N)C(=O)O [L-Methionine] | 0.43 ± 0.39 | – |
| NCC(=O)O [Glycine] | 0.05 ± 0.05 | – |
| CCC(C)N (stereo not shown) [Sec-Butylamine] | 0.00 ± 0.04 | – |

| Structure (SMILES) | Δ Tm [°C] | Δ Tm (Δ Tm) [°C] |
| --- | --- | --- |
| OC[C@H]1O[C@@H]2O[C@H]3[C@H](O)[C@@H](O)[C@@H](O[C@H]4[C@H](O)[C@@H](O)[C@@H](O[C@H]5[C@H](O)[C@@H](O)[C@@H](O[C@H]6[C@H](O)[C@@H](O)[C@@H](O[C@H]7[C@H](O)[C@@H](O)[C@@H](O[C@H]8[C@H](O)[C@@H](O)[C@@H](O[C@H]9[C@H](O)[C@@H](O)[C@@H](O[C@H]1[C@H](O)[C@H]2O)O[C@@H]9CO)O[C@@H]8CO)O[C@@H]7CO)O[C@@H]6CO)O[C@@H]5CO)O[C@@H]4CO)O[C@@H]3CO [γ-Cyclodextrin] | 0.28 ± 0.07 | – |
| CC(C)C[C@H](N)C(=O)O [L-Leucine] | 0.05 ± 0.03 | – |
| OC[C@H]1O[C@@H](Oc2ccc(O)cc2)[C@H](O)[C@@H](O)[C@@H]1O [Arbutin] | 0.03 ± 0.05 | – |
| C/C=C/C=C/C(=O)O [Sorbic Acid] | 0.65 ± 0.09 | – |
| C=C(CC(=O)O)C(=O)O [Itaconic Acid] | -0.05 ± 0.33 | – |
| O=CC[C@H](O)[C@H](O)CO [2-Deoxy-D-Ribose] | 0.66 ± 0.05 | – |
| CC(=O)N[C@H]1C(O)O[C@H](CO)[C@H](O)[C@@H]1O (stereo partly drawn) [N-Acetyl-D-Galactosamine] | 0.00 ± 0.00 | – |
| OC[C@H]1O[C@@H]2O[C@H]3[C@H](O)[C@@H](O)[C@@H](O[C@H]4[C@H](O)[C@@H](O)[C@@H](O[C@H]5[C@H](O)[C@@H](O)[C@@H](O[C@H]6[C@H](O)[C@@H](O)[C@@H](O[C@H]7[C@H](O)[C@@H](O)[C@@H](O[C@H]1[C@H](O)[C@H]2O)O[C@@H]7CO)O[C@@H]6CO)O[C@@H]5CO)O[C@@H]4CO)O[C@@H]3CO [α-Cyclodextrin] | 0.08 ± 0.0 | – |
| O=C1CC[C@@H](C(=O)O)N1 [L-Pyroglutamic Acid] | 0.08 ± 0.00 | – |
| C[C@@H](O)[C@@H](C)O [2,3-Butanediol] | 0.05 ± 0.03 | – |
| O=C(CO)[C@@H](O)[C@H](O)[C@@H](O)C(=O)O [5-keto-D-Gluconic Acid] | 0.10 ± 0.02 | – |
| OC[C@@]12OC[C@@H](O1)[C@@H](O)[C@@H](O)[C@@H]2O [Sedoheptulosan] | 0.08 ± 0.00 | – |
| CC(=O)N[C@H]1[C@H]([C@H](O)[C@H](O)CO)OC(O)(C(=O)O)C[C@@H]1O (stereo partly shown) [N-Acetyl-Neuraminic Acid] | 0.08 ± 0.00 | – |
| OC[C@@H](O)C(O)[C@H](O)CO [D-Arabitol] | 0.00 ± 0.05 | – |
| OC[C@H]1O[C@H](OC[C@H]2O[C@H](OC[C@H]3O[C@H](O[C@]4(CO)O[C@H](CO)[C@@H](O)[C@@H]4O)[C@H](O)[C@@H](O)[C@@H]3O)[C@H](O)[C@@H](O)[C@H]2O)[C@H](O)[C@@H](O)[C@H]1O [Stachyose] | 0.05 ± 0.05 | – |
| N[C@H]1C(O)O[C@H](CO)[C@@H](O)[C@@H]1O (stereo partly drawn) [D-Glucosamine] | -0.25 ± 0.03 | – |
| OC[C@H]1O[C@H](OC[C@H]2O[C@H](O[C@]3(CO)O[C@H](CO)[C@@H](O)[C@@H]3O)[C@H](O)[C@@H](O)[C@@H]2O)[C@H](O)[C@@H](O)[C@H]1O [D-Raffinose] | 0.00 ± 0.00 | – |
| O=C(O)[C@@H](O)[C@H](O)C(=O)O [D-Tartaric Acid] | – | 0.10 ± 0.11 |
| O=C(O)CCCO [γ-Hydroxy Butyric Acid] | 0.08 ± 0.00 | – |
